Key:
Assay in all cases: cells
[1] = tested on: KYSE-410; format: functional, cell-based, Homo sapiens;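 further: growth inhibition of KYSE-410 cells, measured through a cell viability readout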
Description: SANGER: Inhibition of human KYSE-410 cell growth in a cell viability assay.

[2] = tested on: NY; format: functional, cell-based, Homo sapiens
Description: SANGER: Inhibition of human NY cell growth in a cell viability assay.

[3] = tested on: YH-13; format: functional, cell-based, Homo sapiens;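 further: cell viability readout of growth suppression in the human YH-13 cell line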
Description: SANGER: Inhibition of human YH-13 cell growth in a cell viability assay.

[4] = tested on: D-423MG; format: functional, cell-based, Homo sapiens
Description: SANGER: Inhibition of human D-423MG cell growth in a cell viability assay.

[5] = tested on: T-24; format: functional, cell-based, Homo sapiens;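 further: growth inhibition of T-24 cells, read out with a cell viability assay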
Description: SANGER: Inhibition of human T-24 cell growth in a cell viability assay.

[6] = tested on: KYSE-150 cell line; format: functional, cell-based, Homo sapiens;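 further: growth inhibition of human KYSE-150 cells, read out with a cell viability assay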
Description: SANGER: Inhibition of human KYSE-150 cell growth in a cell viability assay.

[7] = tested on: HSC-4; format: functional, cell-based, Homo sapiens;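 further: growth inhibition of human HSC-4 cells, read out with a cell viability assay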
Description: SANGER: Inhibition of human HSC-4 cell growth in a cell viability assay.

[8] = tested on: ZR-75-30; format: functional, cell-based, Homo sapiens;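 further: growth inhibition of ZR-75-30 cells, measured with a cell viability readout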
Description: SANGER: Inhibition of human ZR-75-30 cell growth in a cell viability assay.

[9] = tested on: HCC70; format: functional, cell-based, Homo sapiens;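 further: cell viability assay measuring how strongly the compound suppresses proliferation of HCC70 cells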
Description: SANGER: Inhibition of human HCC70 cell growth in a cell viability assay.

[10] = tested on: SKG-IIIa; format: functional, cell-based, Homo sapiens;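 further: cell growth inhibition, read out with a cell viability assay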
Description: SANGER: Inhibition of human SKG-IIIa cell growth in a cell viability assay.

[11] = tested on: 5637; format: functional, cell-based, Homo sapiens
Description: SANGER: Inhibition of human 5637 cell growth in a cell viability assay.

[12] = tested on: HSC-3; format: functional, cell-based, Homo sapiens
Description: SANGER: Inhibition of human HSC-3 cell growth in a cell viability assay.

[13] = tested on: CP50-MEL-B; format: functional, cell-based, Homo sapiens;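 further: growth inhibition of the human cell line, measured with a cell viability read-out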
Description: SANGER: Inhibition of human CP50-MEL-B cell growth in a cell viability assay.

[14] = tested on: PA-1; format: functional, cell-based, Homo sapiens;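 further: IC50 for suppression of PA-1 cell proliferation, determined with a cell viability read-out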
Description: SANGER: Inhibition of human PA-1 cell growth in a cell viability assay.

[15] = tested on: M14; format: functional, cell-based, Homo sapiens;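 further: growth inhibition of M14 cells, read out with a cell viability assay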
Description: SANGER: Inhibition of human M14 cell growth in a cell viability assay.

[16] = tested on: H-EMC-SS; format: functional, cell-based, Homo sapiens
Description: SANGER: Inhibition of human H-EMC-SS cell growth in a cell viability assay.

[17] = tested on: AU565; format: functional, cell-based, Homo sapiens;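 further: cell viability assay measuring growth inhibition of human AU565 cells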
Description: SANGER: Inhibition of human AU565 cell growth in a cell viability assay.

[18] = tested on: MDA-MB-453; format: functional, cell-based, Homo sapiens
Description: SANGER: Inhibition of human MDA-MB-453 cell growth in a cell viability assay.

[19] = tested on: EW-22; format: functional, cell-based, Homo sapiens;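 further: growth inhibition of the EW-22 cell line, measured with a cell viability readout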
Description: SANGER: Inhibition of human EW-22 cell growth in a cell viability assay.

[20] = tested on: MEL-JUSO; format: functional, cell-based, Homo sapiens;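 further: growth inhibition of human MEL-JUSO cells, read out with a cell viability assay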
Description: SANGER: Inhibition of human MEL-JUSO cell growth in a cell viability assay.

[21] = tested on: SCC-25; format: functional, cell-based, Homo sapiens;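 further: growth inhibition of SCC-25 cells, measured with a cell viability assay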
Description: SANGER: Inhibition of human SCC-25 cell growth in a cell viability assay.

[22] = tested on: NCI-H1703; format: functional, cell-based, Homo sapiens;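 further: growth inhibition of NCI-H1703 cells, read out via a cell viability assay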
Description: SANGER: Inhibition of human NCI-H1703 cell growth in a cell viability assay.

[23] = tested on: SW 1116; format: functional, cell-based, Homo sapiens;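 further: growth inhibition of SW1116 cells, read out with a cell viability assay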
Description: SANGER: Inhibition of human SW1116 cell growth in a cell viability assay.

[24] = tested on: U2OS; format: functional, cell-based, Homo sapiens, U-2-OS;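 further: growth inhibition of human U-2-OS cells, determined with a cell viability assay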
Description: SANGER: Inhibition of human U-2-OS cell growth in a cell viability assay.

[25] = tested on: CAL-120; format: functional, cell-based, Homo sapiens;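 further: cell growth inhibition, read out as cell viability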
Description: SANGER: Inhibition of human CAL-120 cell growth in a cell viability assay.

[26] = tested on: UMC-11; format: functional, cell-based, Homo sapiens;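 further: growth inhibition of UMC-11 cells, read out with a cell viability assay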
Description: SANGER: Inhibition of human UMC-11 cell growth in a cell viability assay.

[27] = tested on: T98G; format: functional, cell-based, Homo sapiens;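 further: growth inhibition of T98G cells, read out by a cell viability assay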
Description: SANGER: Inhibition of human T98G cell growth in a cell viability assay.

[28] = tested on: MDA-MB-157; format: functional, cell-based, Homo sapiens
Description: SANGER: Inhibition of human MDA-MB-157 cell growth in a cell viability assay.

[29] = tested on: NCI-H2170; format: functional, cell-based, Homo sapiens;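 further: cell viability assay measuring growth inhibition of human NCI-H2170 cancer cells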
Description: SANGER: Inhibition of human NCI-H2170 cell growth in a cell viability assay.

[30] = tested on: U-251; format: functional, cell-based, Homo sapiens;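 further: growth inhibition of human U-251 cells, read out through a cell viability assay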
Description: SANGER: Inhibition of human U251 cell growth in a cell viability assay.

[31] = tested on: MDA-MB-361; format: functional, cell-based, Homo sapiens
[32] = tested on: COLO-678; format: functional, cell-based, Homo sapiens
Description: SANGER: Inhibition of human COLO-678 cell growth in a cell viability assay.

[33] = tested on: MDA-MB-175-VII; format: functional, cell-based, Homo sapiens
[34] = tested on: NCI-H1437; format: functional, cell-based, Homo sapiens;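 further: growth inhibition of human NCI-H1437 cells, read out by a cell viability assay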
Description: SANGER: Inhibition of human NCI-H1437 cell growth in a cell viability assay.

[35] = tested on: HCC1395; format: functional, cell-based, Homo sapiens;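 further: growth inhibition of HCC1395 cells, read out by a cell viability assay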
Description: SANGER: Inhibition of human HCC1395 cell growth in a cell viability assay.

[36] = tested on: SW1990; format: functional, cell-based, Homo sapiens;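 further: cell growth inhibition determined with a viability assay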
Description: SANGER: Inhibition of human SW1990 cell growth in a cell viability assay.

[37] = tested on: NCI-H727; format: functional, cell-based, Homo sapiens;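 further: growth inhibition of human NCI-H727 cells, read out with a cell viability assay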
Description: SANGER: Inhibition of human NCI-H727 cell growth in a cell viability assay.

Nc1cccc2c1CN(C1CCC(=O)NC1=O)C2=O (stereo not drawn) [LENALIDOMIDE]
IC50 ([1]; Homo sapiens, KYSE-410): > 5 µM
IC50 ([2]; Homo sapiens, NY): > 5 µM
IC50 ([3]; Homo sapiens, YH-13): > 5 µM
IC50 ([4]; Homo sapiens, D-423MG): > 5 µM
IC50 ([5]; Homo sapiens, T-24): > 5 µM
IC50 ([6]; Homo sapiens, KYSE-150): > 5 µM
IC50 ([7]; Homo sapiens, HSC-4): > 5 µM
IC50 ([8]; Homo sapiens, ZR-75-30): > 5 µM
IC50 ([9]; Homo sapiens, HCC70): > 5 µM
IC50 ([10]; Homo sapiens, SKG-IIIa): > 5 µM
IC50 ([11]; Homo sapiens): > 5 µM
IC50 ([12]; Homo sapiens, HSC-3): > 5 µM
IC50 ([13]; Homo sapiens, CP50-MEL-B): > 5 µM
IC50 ([14]; Homo sapiens, PA-1): > 5 µM
IC50 ([15]; Homo sapiens, M14): > 5 µM
IC50 ([16]; Homo sapiens, H-EMC-SS): > 5 µM
IC50 ([17]; Homo sapiens, AU565): > 5 µM
IC50 ([18]; Homo sapiens, MDA-MB-453): > 5 µM
IC50 ([19]; Homo sapiens, EW-22): > 5 µM
IC50 ([20]; Homo sapiens, MEL-JUSO): > 5 µM
IC50 ([21]; Homo sapiens, SCC-25): > 5 µM
IC50 ([22]; Homo sapiens, NCI-H1703): > 5 µM
IC50 ([23]; Homo sapiens, SW 1116): > 5 µM
IC50 ([24]; Homo sapiens, U2OS): > 5 µM
IC50 ([25]; Homo sapiens, CAL-120): > 5 µM
IC50 ([26]; Homo sapiens, UMC-11): > 5 µM
IC50 ([27]; Homo sapiens, T98G): > 5 µM
IC50 ([28]; Homo sapiens, MDA-MB-157): > 5 µM
IC50 ([29]; Homo sapiens, NCI-H2170): > 5 µM
IC50 ([30]; Homo sapiens, U-251): > 5 µM
IC50 ([31]; Homo sapiens, MDA-MB-361): > 5 µM
IC50 ([32]; Homo sapiens, COLO-678): > 5 µM
IC50 ([33]; Homo sapiens, MDA-MB-175-VII): > 5 µM
IC50 ([34]; Homo sapiens, NCI-H1437): > 5 µM
IC50 ([35]; Homo sapiens, HCC1395): > 5 µM
IC50 ([36]; Homo sapiens, SW1990): > 5 µM
IC50 ([37]; Homo sapiens, NCI-H727): > 5 µM

CISPLATIN
IC50 ([1]; kyse-410): 515 µM
IC50 ([2]; ny): 28.2 µM
IC50 ([3]; yh-13): 12.1 µM
IC50 ([4]; d-423mg): 13.9 µM
IC50 ([5]; t-24): 5.56 µM
IC50 ([6]; kyse-150): 411 µM
IC50 ([7]; hsc-4): 1.58 µM
IC50 ([8]; zr-75-30): 72.2 µM
IC50 ([9]; hcc70): 9.92 µM
IC50 ([10]; skg-iiia): 7.05 µM
IC50 [11]: 4.52 µM
IC50 ([12]; hsc-3): 21.9 µM
IC50 ([13]; cp50-mel-b): 217 µM
IC50 ([14]; pa-1): 0.79 µM
IC50 ([15]; m14): 2.79 µM
IC50 ([16]; h-emc-ss): 21.2 µM
IC50 ([17]; au565): 52.5 µM
IC50 ([18]; mda-mb-453): 25.8 µM
IC50 ([19]; ew-22): 2.08 µM
IC50 ([20]; mel-juso): 18.8 µM
IC50 ([21]; scc-25): 64.6 µM
IC50 ([22]; nci-h1703): 148 µM
IC50 ([23]; sw 1116): 158 µM
IC50 ([24]; u-2-os): 13.4 µM
IC50 ([25]; cal-120): 264 µM
IC50 ([26]; umc-11): 903 µM
IC50 ([27]; t98g): 141 µM
IC50 ([28]; mda-mb-157): 290 µM
IC50 ([29]; nci-h2170): 23 µM
IC50 ([30]; u-251): 11.6 µM
IC50 ([31]; mda-mb-361): 18.5 µM
IC50 ([32]; colo-678): 621 µM
IC50 ([33]; mda-mb-175-vii): 69.7 µM
IC50 ([34]; nci-h1437): 84.4 µM
IC50 ([35]; hcc1395): 143 µM
IC50 ([36]; sw1990): 9.71 µM
IC50 ([37]; nci-h727): 691 µM

CS(=O)(=O)c1ccc(C(=O)Nc2ccc(Cl)c(-c3ccccn3)c2)c(Cl)c1 [VISMODEGIB]
IC50 ([1]; Homo sapiens, KYSE-410): > 10 µM
IC50 ([2]; Homo sapiens, NY): > 10 µM
IC50 ([3]; Homo sapiens, YH-13): > 10 µM
IC50 ([4]; Homo sapiens, D-423MG): > 10 µM
IC50 ([5]; Homo sapiens, T-24): > 10 µM
IC50 ([6]; Homo sapiens, KYSE-150): > 10 µM
IC50 ([7]; Homo sapiens, HSC-4): > 10 µM
IC50 ([8]; Homo sapiens, ZR-75-30): > 10 µM
IC50 ([9]; Homo sapiens, HCC70): > 10 µM
IC50 ([10]; Homo sapiens, SKG-IIIa): > 10 µM
IC50 ([11]; Homo sapiens): > 10 µM
IC50 ([12]; Homo sapiens, HSC-3): > 10 µM
IC50 ([13]; Homo sapiens, CP50-MEL-B): > 10 µM
IC50 ([14]; Homo sapiens, PA-1): > 10 µM
IC50 ([15]; Homo sapiens, M14): > 10 µM
IC50 ([16]; Homo sapiens, H-EMC-SS): > 10 µM
IC50 ([17]; Homo sapiens, AU565): > 10 µM
IC50 ([18]; Homo sapiens, MDA-MB-453): > 10 µM
IC50 ([19]; Homo sapiens, EW-22): > 10 µM
IC50 ([20]; Homo sapiens, MEL-JUSO): > 10 µM
IC50 ([21]; Homo sapiens, SCC-25): > 10 µM
IC50 ([22]; Homo sapiens, NCI-H1703): > 10 µM
IC50 ([23]; Homo sapiens, SW 1116): > 10 µM
IC50 ([24]; Homo sapiens, U2OS): > 10 µM
IC50 ([25]; Homo sapiens, CAL-120): > 10 µM
IC50 ([26]; Homo sapiens, UMC-11): > 10 µM
IC50 ([27]; Homo sapiens, T98G): > 10 µM
IC50 ([28]; Homo sapiens, MDA-MB-157): > 10 µM
IC50 ([29]; Homo sapiens, NCI-H2170): > 10 µM
IC50 ([30]; Homo sapiens, U-251): > 10 µM
IC50 ([31]; Homo sapiens, MDA-MB-361): > 10 µM
IC50 ([32]; Homo sapiens, COLO-678): > 10 µM
IC50 ([33]; Homo sapiens, MDA-MB-175-VII): > 10 µM
IC50 ([34]; Homo sapiens, NCI-H1437): > 10 µM
IC50 ([35]; Homo sapiens, HCC1395): > 10 µM
IC50 ([36]; Homo sapiens, SW1990): > 10 µM
IC50 ([37]; Homo sapiens, NCI-H727): > 10 µM

Cc1cn(-c2cc(NC(=O)c3ccc(C)c(Nc4nccc(-c5cccnc5)n4)c3)cc(C(F)(F)F)c2)cn1 [NILOTINIB]
IC50 ([1]; Homo sapiens, KYSE-410): > 2 µM
IC50 ([2]; Homo sapiens, NY): > 2 µM
IC50 ([3]; Homo sapiens, YH-13): > 2 µM
IC50 ([4]; Homo sapiens, D-423MG): > 2 µM
IC50 ([5]; Homo sapiens, T-24): > 2 µM
IC50 ([6]; Homo sapiens, KYSE-150): > 2 µM
IC50 ([7]; Homo sapiens, HSC-4): > 2 µM
IC50 ([8]; Homo sapiens, ZR-75-30): > 2 µM
IC50 ([9]; Homo sapiens, HCC70): > 2 µM
IC50 ([10]; Homo sapiens, SKG-IIIa): > 2 µM
IC50 ([11]; Homo sapiens): > 2 µM
IC50 ([12]; Homo sapiens, HSC-3): > 2 µM
IC50 ([13]; Homo sapiens, CP50-MEL-B): > 2 µM
IC50 ([14]; Homo sapiens, PA-1): > 2 µM
IC50 ([15]; Homo sapiens, M14): > 2 µM
IC50 ([16]; Homo sapiens, H-EMC-SS): > 2 µM
IC50 ([17]; Homo sapiens, AU565): > 2 µM
IC50 ([18]; Homo sapiens, MDA-MB-453): > 2 µM
IC50 ([19]; Homo sapiens, EW-22): > 2 µM
IC50 ([20]; Homo sapiens, MEL-JUSO): > 2 µM
IC50 ([21]; Homo sapiens, SCC-25): > 2 µM
IC50 ([22]; Homo sapiens, NCI-H1703): 1.19 µM
IC50 ([23]; Homo sapiens, SW 1116): > 2 µM
IC50 ([24]; Homo sapiens, U2OS): > 2 µM
IC50 ([25]; Homo sapiens, CAL-120): > 2 µM
IC50 ([26]; Homo sapiens, UMC-11): > 2 µM
IC50 ([27]; Homo sapiens, T98G): > 2 µM
IC50 ([28]; Homo sapiens, MDA-MB-157): > 2 µM
IC50 ([29]; Homo sapiens, NCI-H2170): > 2 µM
IC50 ([30]; Homo sapiens, U-251): > 2 µM
IC50 ([31]; Homo sapiens, MDA-MB-361): > 2 µM
IC50 ([32]; Homo sapiens, COLO-678): > 2 µM
IC50 ([33]; Homo sapiens, MDA-MB-175-VII): > 2 µM
IC50 ([34]; Homo sapiens, NCI-H1437): > 2 µM
IC50 ([35]; Homo sapiens, HCC1395): > 2 µM
IC50 ([36]; Homo sapiens, SW1990): > 2 µM
IC50 ([37]; Homo sapiens, NCI-H727): > 2 µM

Reference: ChEMBL document CHEMBL1201861, “Genomics of Drug Sensitity in Cancer screening data, Wellcome Trust Sanger Institute”
